US6825018B1, “Sorbitol dehydrogenase, gene encoding the same and use thereof” (priority 1999, dated 2004)

Key:
Format in all cases: biochemical, Gluconobacter oxydans G624
[1] = target: T1, His-tagged SLDH (Gluconobacter oxydans, UniProt Q9KWR5); assay: SLDH activity: substrate specificity; settings: glycine/NaOH buffer pH 10.1, coenzyme NADP+; for Activity: substrate varied
[2] = target: T1, His-tagged SLDH; assay: SLDH activity: coenzyme dependency and active pH range (increase in NAD(P)H, absorbance at 340 nm); settings: for Activity: substrate sorbitol, 25° C., coenzyme varied
Procedure: To a solution containing 0.1 ml of 50 mM NAD^+ (or NADP^+), 0.2 ml of 500 mM buffer, 10 μl of His-tagged SLDH solution (2.1 μg protein) prepared in Example 2(4) and distilled water (0.29 ml) was added to 500 mM sorbitol (0.4 ml) to start the reaction (25° C.), and increase in NADH (or NADPH) was measured by a spectrophotometer (UV-2200; Shimadzu) based on absorbance at 340 nm as an index. For the reaction solutions having pH 10.1 and pH 9.0, glycine/NaOH buffer was used, and for reaction solutions having pH 8.0 and pH 7.0, potassium phosphate buffer was used. The enzyme activity (1 unit) was defined to be an amount to generate 1 μmol of NADH (or NADPH) per minute. The molecular extinction coefficient of NAD(P)H was 6.3 mM^−1 cm^−1. The protein amount was measured with bovine serum albumin (BSA) as a standard by the Lowry method.

[3] = target: T1, His-tagged SLDH; assay: Confirmation of SLDH activity: reaction of purified His-tagged SLDH with sorbitol, product analysis; settings: 10 mM (1.82 mg/ml) sorbitol, pH 10.1, 5 mM NADP^+, 25° C., 24 hours
Procedure: In the same manner as in the above-mentioned (2) except that the cell-free extract to be applied was by 10 ml, the resin after His-tagged SLDH adsorption was washed 6 times, and His-tagged SLDH was eluted with 50 mM imidazole and 100 mM NaCl-containing 20 mM Tris-HCl (5 ml, pH 8.0), His-tagged SLDH was purified. The obtained His-tagged SLDH was reacted with sorbitol and the resulting product was analyzed. The composition of the reaction solution (2 ml) was 10 mM (1.82 mg/ml) sorbitol, 0.1 M glycine/NaOH buffer (pH 10.1), 5 mM NADP^+ and His-tagged SLDH 0.2 ml (41.4 μg protein) and the reaction was carried out at 25° C. for 24 hours. […] Thus, His-tagged SLDH purified by cobalt type IMAC was confirmed to be sorbitol dehydrogenase that oxidizes sorbitol and generates sorbose.

[4] = pH 7.0, potassium phosphate buffer
[5] = pH 8.0, potassium phosphate buffer

T1 sequence (Q9KWR5 entry or part of it): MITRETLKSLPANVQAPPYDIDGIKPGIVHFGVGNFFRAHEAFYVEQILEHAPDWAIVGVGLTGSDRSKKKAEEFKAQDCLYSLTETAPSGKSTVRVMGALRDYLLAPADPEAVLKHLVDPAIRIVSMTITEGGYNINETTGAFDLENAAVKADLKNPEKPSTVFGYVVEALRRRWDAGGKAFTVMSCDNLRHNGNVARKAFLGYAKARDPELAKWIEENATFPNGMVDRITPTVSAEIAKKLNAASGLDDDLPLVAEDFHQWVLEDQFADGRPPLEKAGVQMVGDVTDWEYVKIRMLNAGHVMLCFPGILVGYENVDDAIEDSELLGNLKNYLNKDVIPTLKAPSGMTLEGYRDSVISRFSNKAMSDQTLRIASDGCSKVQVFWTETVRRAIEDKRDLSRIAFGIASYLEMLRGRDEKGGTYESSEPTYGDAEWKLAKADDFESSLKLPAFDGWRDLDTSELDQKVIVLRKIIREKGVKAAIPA

Row | SMILES | Use as substrate by SLDH (in words) [1] | Activity [1] [U/mg protein] | further results
1 | OCC(O)CO [glycerol] | no action | 0 | –
2 | OC[C@@H](O)C(O)[C@H](O)CO [arabitol] | could utilize | 88.1 | –
3 | OC[C@@H](O)[C@H](O)[C@@H](O)CO [xylitol] | no action | 0 | –
4 | OC[C@@H](O)[C@@H](O)[C@@H](O)CO [ribitol] | no action | 0 | –
5 | NC(=O)c1ccc[n+]([C@@H]2O[C@H](COP(=O)([O-])OP(=O)(O)OC[C@H]3O[C@@H](n4cnc5c(N)ncnc54)[C@H](OP(=O)(O)O)[C@@H]3O)[C@@H](O)[C@H]2O)c1 [NADP^+] | – | – | Coenzyme specificity (in words) ([2]; NAD^+ versus NADP^+ as coenzyme): higher specificity; Activity [2, 4]: 4.2 U/mg protein; Activity [2, 5]: 22.9 U/mg protein; Activity ([2]; pH 9.0, glycine/NaOH buffer): 30.0 U/mg protein; Activity ([2]; pH 10.1, glycine/NaOH buffer): 130.2 U/mg protein
6 | O=C(CO)[C@H](O)[C@@H](O)[C@H](O)CO [sorbose] | – | – | sorbose generated [3]: 1.12 mg/mL
7 | OC[C@@H](O)[C@@H](O)[C@H](O)[C@@H](O)CO [sorbitol] | – | 130.2 | conversion efficiency (sorbitol to sorbose) ([3]; 41.4 μg protein): 62%; sorbitol remaining [3]: 0.70 mg/mL
8 | OC[C@@H](O)[C@@H](O)[C@H](O)[C@H](O)CO [mannitol] | could utilize | 85.7 | –
9 | O[C@H]1[C@H](O)[C@@H](O)[C@H](O)[C@@H](O)[C@H]1O [inositol] | no action | 0 | –
10 | NC(=O)c1ccc[n+]([C@@H]2O[C@H](COP(=O)([O-])OP(=O)(O)OC[C@H]3O[C@@H](n4cnc5c(N)ncnc54)[C@H](O)[C@@H]3O)[C@@H](O)[C@H]2O)c1 [NAD^+] | – | – | Activity [2, 4]: 0.1 U/mg protein; Activity [2, 5]: 1.2 U/mg protein; Activity ([2]; pH 9.0, glycine/NaOH buffer): 3.4 U/mg protein; Activity ([2]; pH 10.1, glycine/NaOH buffer): 8.1 U/mg protein
